This note sets out measurements from patent publication US8168568B1, “Combinatorial therapy for protein signaling diseases” (The United States of America, as represented by the …, priority 2003, dated 2012).

Format in all cases: cell-based, human
The test system of assay [1] is c-erbB1, MEK, and ERK kinases. In words: Kinase substrate array time course with and without MEK inhibitor. As to conditions: CCL250, 10 uM pretreatment 1 hour, 100 ng/ml EGF; FIG. 18B. Here is the method:
Separate aliquots at a series of EGF post treatment time intervals were taken and cell lysates were prepared for kinase substrate array analysis.
To determine if this technology can capture the time-course of linked kinase network events, a series of known connected phosphorylation substrates were analyzed: epidermal growth factor receptor (c-erbB1), MEK, and ERK kinases using a colon cancer cell line (CCL250) with over-expressed c-erbB1 receptor levels. […] When these events are analyzed by reverse phase array, both ERK and MEK phosphorylation show a coordinately linked kinetic profile which is expected since ERK is a direct substrate of MEK kinase (FIG. 18A). […] Phosphorylation of kinase substrates is a transient event, as phosphatases promptly dephosphorylate the substrate as the cascade continues.

The subject of a further assay is EGFr signaling pathway. The experiment in a line: Reverse phase protein microarray of EGFr pathway nodes in EGF-stimulated colon cancer cells treated with kinase inhibitors. As to conditions: CCL-250 cells, drug treatment 30 minutes, then EGF 0.1 μg/mL; FIG. 6A. As for the experimental part: The epidermal growth factor receptor (EGFr) signaling pathway, which is a well-characterized pathway where interdependence is already known, was investigated. […]. […] In these experiments, colon cancer cells, ATCC CCL-250, which over-express EGFr 25-75% of the time, were cultured. […] Impact of drug compounds on the pathway was evaluated by treating the cells with a drug compound or a combination of drug compounds for 30 minutes. […] Cells were then scraped from the bottom surface of the wells using a pipet tip and placed into mini-centrifuge tubes. The lysates were then vortexed, boiled for 5 minutes, and centrifuged for 20 minutes at 14,000 rpm. The lysates were arrayed using the reverse phase microarray techniques described in Paweletz et al. […] In contrast to forward-phase protein arrays that immobilize the probe, the reverse phase protein array immobilizes the whole repertoire of patient proteins (e.g. by a nitrocellulose substrate) that represent the state of individual tissue cell populations. Probes are then applied to the immobilized proteins. […] The phospho-antibodies bind to the phosphorylated, or activated, form of the protein. The other antibody binds to and is used to determine the total amount of the protein in the sample. Using the values from these two antibodies, the relative activation of that proteins may be calculated as the ratio of phosphorylated protein to total protein.

The test system of assay [2] is EGF stimulated ATCC CCL-250 cancer cells. The experiment in a line: 10 day colony growth bioassay. Conditions: EGF stimulated CCL-250, FIG. 9.
The test system of a further assay is EGFR. In words: EGFR activation time course by reverse phase protein array. As to conditions: for EGFR receptor phosphorylation: time course experiments, 100 ng/ml EGF, 10 μM PGE2, or 25 ng/ml TGF-α.
For the next assay, the system named is COX-2 protein. In words: COX-2 protein expression by reverse phase protein array and Western blot. Conditions: colon cancer cells, every 24 hours over 72 hours; data not shown. Here is the method:
Lysates that were analyzed by Western blot were evaluated for protein concentration with the BCA Protein Assay Kit (Pierce, Rockford, Ill.). Details of Western analyses are well known. Briefly, equal amounts of proteins were fractionated on 4-20% SDS-PAGE gels and transferred to PVDF membranes. After sequential incubations with primary antibodies and peroxidase-conjugated goat anti-rabbit antibodies (Tropix, Bedford, Mass.), signal was developed using an enhanced chemiluminescent staining system (Tropix, Bedford, Mass.). Protein loading was normalized for phospho- and nonphospho-proteins with the total self-protein and β-actin, respectively.
Protein loading was controlled for by expressing COX-2 protein relative to β-actin.

Regarding `COc1cccc(-c2cc(=O)c3ccccc3o2)c1N` [PD98059, 2-(2′-amino-3′-methoxyphenyl)-oxanaphthalen-4-one], in assay [1], the “phosphorylation of c-erbB1, MEK and ERK after EGF” value is given as “only ERK phosphorylation was effected”. Also, in the assay on EGFr signaling pathway, the “activation of ERK” value was “diminishing the activation of the next node along the pathway, ERK” and the “shunting via the CREB node (relative expression of CREB)” value was “causes shunting through this node”.

For the compound `NC(=O)c1nnn(Cc2cc(Cl)c(C(=O)c3ccc(Cl)cc3)c(Cl)c2)c1N` [CAI, carboxyamidotriazole], the “inhibition of cell proliferation” value in assay [2] is listed as “no significant-growth inhibition”.

In the case of `COc1cc2ncnc(Nc3cccc(Cl)c3)c2cc1OC` [AG1478, 4-(3-chloroanilino)-6,7-dimethoxyquinazoline], the “shunting via the CREB node (relative expression of CREB)” value in the assay with EGFr signaling pathway was “not seen”.

`CCCCC[C@H](O)/C=C/[C@H]1[C@H](O)CC(=O)[C@@H]1C/C=C\CCCC(=O)O` [PGE2, prostaglandin E2]: in the assay with EGFR (harvested at 5 minutes, 100 ng/ml neutralizing TGF-α antibody 1 hour, FIG. 11), the “EGFR activation with or without TGF-α inhibitor pretreatment” value is on record as “requirement of TGF-α for the activation of EGFR by PGE2”. In the assay with EGFR, the EGFR receptor phosphorylation result was “can be induced”. In the assay with COX-2 protein, the “expression of COX-2 protein relative to β-actin” value was “induced increased expression of COX-2 protein”.

In the case of TGF-alpha: EGFR ligand used as stimulus, the EGFR receptor phosphorylation result in the assay with EGFR is recorded as “can be induced”.

Take “EGF: recombinant epidermal growth factor, EGFR ligand used as stimulus”: in the assay on EGFR, the EGFR receptor phosphorylation result is given as “can be induced”.
